Experimental data published in paper PMC5458211, “Mitochondrial VDAC1-based peptides: Attacking oncogenic properties in glioblastoma” (Oncotarget, 2017).
Non-standard residues stand in square brackets, D forms with d. Residues, ends and D or L forms follow the SMILES beside them.

Tests used:
[1] = system: primary brain cells (PBCs); experiment: Cell death by PI staining and flow cytometry, primary brain cells; assay type: cell-based; details: mouse PBCs, 6 h at 37°C, serum-free medium, PI staining; Fig 1I-1K
Text: Figure 1 VDAC1-based peptides induce dramatic cell death of several brain tumor-derived cell lines but to lesser extent in primary brain cells A. IHC staining of VDAC1 of human normal brain (n=13) or glioblastoma (n=41) in tissue array slides (Biomax), as described in Materials and methods available online in Supplemental information. Percentages of sections stained at the intensity indicated are shown. […] The VDAC1-derived sequences Δ(1-14)N-terminus and LP4 are in green and pink, respectively. The cell-penetrating peptides Antp and Tf are in orange and blue, respectively. The loop shape of LP4 stabilized by a tryptophan zipper is in purple. The amino acids of Δ(1-14)N-terminus, LP4 and Antp are in the D configuration. The sequences of D-LP4 and Retro-D-LP4 are presented below. C. Immunoblot analysis of VDAC1, HK-I, Bcl-2 and Transferrin receptor (TfR) expression in brain tumor-derived cell lines using specific antibodies, as described in Materials and methods available online in Supplemental information. […] Cells were harvested, washed twice with PBS and cell death was analyzed by propidium iodide (PI) staining and flow cytometry. H. IC50 values (μM) for pepdide inducing cell death as derived from D-G. The results shown correspond to means ± SD (n=3). […] Cells were harvested, washed twice with PBS and cell death was analyzed by PI staining and flow cytometry. […]
Cells (6×10^5 /ml) were incubated in 500 μl serum-free medium with the peptide of interest for 6 h at 37°C in the presence of 5% CO2. The cells were then trypsinized, centrifuged (1500xg, 5 min), washed with PBS and analyzed for cell death using propidium iodide (PI) staining and flow cytometer (Beckton-Dickinson, San Jose, CA) and BD CellQuest Pro software. Apoptotic cell death was also analyzed by PI and annexin V-FITC staining, and by acridine orange and ethidium bromide staining and light microscopy (Olympus LX2-KSP).

HK-I-GFP = HK-I-GFP detachment from mitochondria by confocal microscopy, SH-SY5Y; assay type: cell-based, human; details: 7 μM, 3 h, serum-free medium, Suppl Fig 2A
Experimental: Mitochondrial VDAC1-based peptides: Attacking oncogenic properties in glioblastoma […]
Cell culture cells were fixed for 15 min using 4% paraformaldehyde prepared in PBS, rinsed with PBS, permabilized with 0.3%
Human glioblastoma U-87MG, U-118MG, CRL- PBST, and stained with DAPI (1:2000). Cell imaging was 2610 (LN-18), U-251MG, human neuroblastoma SH- carried out by confocal microscopy (Olympus 1X81).
SY5Y, mouse glioma GL-261 and mouse neuroblastoma […]
Cellular ATP levels were estimated using a luciferase-based assay (CellTiter-Glo, Promega). […] ATP levels were cytosol was analyzed by immunoblotting. […]
luminescence was recorded using an Infinite M1000 plate peptide (3, 5, 10 μM for 3h), harvested, washed with reader (Tecan, Männedorf, Switzerland). […]
ﬂuoride) containing 0.02% digitonin and incubated for Mitochondrial membrane potential (ΔΨ) was 10 min on ice. Samples were centrifuged at 12,000xg at determined using tetramethylrhodamine methylester 4°C for 10 min to obtain supernatants (cytosolic extracts (TMRM) dye. U-87MG cells (6×10^5/ml) were incubated free of mitochondria) that were analyzed by SDS-PAGE with the indicated concentrations of D-ΔN-Ter-Antp and immuno-probed using anti-hexokinase antibodies, peptide for 3 h, washed twice with PBS, incubated with and then with secondary HRP-conjugated anti-rabbit tetramethylrhodamine methyl ester (TMRM, 800 nM, antibodies. […]

| SMILES | cell death in primary brain cells as compared to U-87MG cells [1] | HK-I-GFP detachment (fluorescence distribution) (HK-I-GFP) |
| --- | --- | --- |
| CC[C@@H](C)[C@@H](NC(=O)[C@@H](CCCCN)NC(=O)[C@H](NC(=O)[C@@H](CCC(N)=O)NC(=O)[C@@H](CCCNC(=N)N)NC(=O)[C@@H](CC(C)C)NC(=O)CNC(=O)[C@@H](Cc1ccccc1)NC(=O)CNC(=O)[C@@H](Cc1ccc(O)cc1)NC(=O)CNC(=O)[C@@H](CCCCN)NC(=O)[C@H](NC(=O)[C@@H](Cc1ccccc1)NC(=O)[C@H](NC(=O)[C@@H](CC(=O)O)NC(=O)[C@H](N)CCCNC(=N)N)C(C)C)[C@H](C)O)[C@H](C)CC)C(=O)N[C@H](Cc1c[nH]c2ccccc12)C(=O)N[C@H](Cc1ccccc1)C(=O)N[C@H](CCC(N)=O)C(=O)N[C@H](CC(N)=O)C(=O)N[C@H](CCCNC(=N)N)C(=O)N[C@H](CCCNC(=N)N)C(=O)N[C@H](CCSC)C(=O)N[C@H](CCCCN)C(=O)N[C@H](Cc1c[nH]c2ccccc12)C(=O)N[C@H](CCCCN)C(=O)N[C@H](CCCCN)C(=O)O [D-ΔN-Ter-Antp] (H-[dR][dD][dV][dF][dT][dK]G[dY]G[dF]G[dL][dR][dQ][dI][dK][dI][dW][dF][dQ][dN][dR][dR][dM][dK][dW][dK][dK]-OH; N-terminus and C-terminus assumed) | lesser extent | became diffuse |
| CC[C@H](C)[C@H](NC(=O)[C@H](Cc1ccc(O)cc1)NC(=O)[C@@H]1CCCN1C(=O)[C@H](CCCNC(=N)N)NC(=O)[C@H](Cc1c[nH]cn1)NC(=O)[C@H](CO)NC(=O)[C@H](Cc1c[nH]c2ccccc12)NC(=O)[C@@H](NC(=O)[C@H](Cc1c[nH]c2ccccc12)NC(=O)[C@H](CCC(=O)O)NC(=O)[C@@H](CCCCN)NC(=O)[C@@H](CCCCN)NC(=O)[C@@H](CC(C)C)NC(=O)[C@@H](CCC(=O)O)NC(=O)[C@H](NC(=O)[C@@H](C)NC(=O)[C@H](NC(=O)[C@@H](CC(N)=O)NC(=O)[C@@H](CC(C)C)NC(=O)[C@@H](C)NC(=O)[C@@H](Cc1c[nH]c2ccccc12)NC(=O)[C@H](NC(=O)[C@@H](C)NC(=O)CNC(=O)[C@@H](CC(N)=O)NC(=O)[C@@H](CO)NC(=O)[C@@H](CC(N)=O)NC(=O)[C@H](CCCCN)NC(=O)[C@H](Cc1c[nH]c2ccccc12)NC(=O)[C@@H](NC(=O)[C@H](Cc1c[nH]c2ccccc12)NC(=O)[C@@H](N)CCCCN)[C@@H](C)O)[C@H](C)O)C(C)C)[C@H](C)O)[C@@H](C)O)C(=O)N[C@@H](C)C(=O)N[C@@H](Cc1c[nH]cn1)C(=O)O [Retro-Tf-D-LP4] | lesser extent |  |
| CC[C@H](C)[C@H](NC(=O)[C@H](C)NC(=O)[C@@H](N)Cc1c[nH]cn1)C(=O)N[C@@H](Cc1ccc(O)cc1)C(=O)N1CCC[C@H]1C(=O)N[C@@H](CCCNC(=N)N)C(=O)N[C@@H](Cc1c[nH]cn1)C(=O)N[C@@H](CO)C(=O)N[C@@H](Cc1c[nH]c2ccccc12)C(=O)N[C@H](C(=O)N[C@@H](Cc1c[nH]c2ccccc12)C(=O)N[C@@H](CCC(=O)O)C(=O)N[C@H](CCCCN)C(=O)N[C@H](CCCCN)C(=O)N[C@H](CC(C)C)C(=O)N[C@H](CCC(=O)O)C(=O)N[C@@H](C(=O)N[C@H](C)C(=O)N[C@@H](C(=O)N[C@H](CC(N)=O)C(=O)N[C@H](CC(C)C)C(=O)N[C@H](C)C(=O)N[C@H](Cc1c[nH]c2ccccc12)C(=O)N[C@@H](C(=O)N[C@H](C)C(=O)NCC(=O)N[C@H](CC(N)=O)C(=O)N[C@H](CO)C(=O)N[C@H](CC(N)=O)C(=O)N[C@@H](CCCCN)C(=O)N[C@@H](Cc1c[nH]c2ccccc12)C(=O)N[C@H](C(=O)N[C@@H](Cc1c[nH]c2ccccc12)C(=O)N[C@@H](CCCCN)C(=O)O)[C@@H](C)O)[C@H](C)O)C(C)C)[C@H](C)O)[C@@H](C)O [Tf-D-LP4] | lesser extent | became diffuse |
